Data reported in ChEMBL document CHEMBL1201862, “PubChem BioAssay data set” (2004).
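In this assay, cells in 96-well plates receive the compound at five concentrations for 48 hours. Endpoints are linearly interpolated between the surrounding concentrations. At the GI50, growth is halved.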 Active and inactive are the calls of the source. No stated cut-off is given here; in the data, active = GI50 up to about 1.1 µM and inactive = higher.

Columns and labels:
Assay in all cases: NCI tumour cell line growth inhibition, 48 h
[1] = test system: NCI-H522
[2] = test system: SR
[3] = test system: EKVX
[4] = test system: HT-29
[5] = test system: ACHN
[6] = test system: KM12
[7] = test system: SF-295
[8] = test system: OVCAR-3
[9] = test system: SK-MEL-5
[10] = test system: A549
[11] = test system: RXF 393
[12] = test system: SF-268
[13] = test system: OVCAR-5
[14] = test system: CCRF-CEM
[15] = test system: A498
[16] = test system: CAKI-1
[17] = test system: TK-10

SMILES | GI50 [1] | GI50 [2] | GI50 [3] | GI50 [4] | GI50 [5] | GI50 [6] | GI50 [7] | GI50 [8] | GI50 [9] | GI50 [10] | GI50 [11] | GI50 [12] | GI50 [13] | GI50 [14] | GI50 [15] | GI50 [16] | GI50 [17]
Cc1ccccc1N(CCC#N)C1=NN(C(=O)CC(=O)Nc2ccc(Cl)cc2)C(c2ccccc2)C1 (stereo not given) | > 100 µM (inactive) | > 100 µM (inactive) | > 100 µM (inactive) | > 100 µM (inactive) | > 100 µM (inactive) | > 100 µM (inactive) | > 100 µM (inactive) | > 100 µM (inactive) | > 100 µM (inactive) | > 100 µM (inactive) | > 100 µM (inactive) | > 100 µM (inactive) | > 100 µM (inactive) | > 100 µM (inactive) | – | – | –
Cn1cnc([N+](=O)[O-])c1Sc1nc2cccnc2s1 | – | 16 µM (inactive) | 17.5 µM (inactive) | 21.3 µM (inactive) | 24.5 µM (inactive) | 31.6 µM (inactive) | > 100 µM (inactive) | 14.6 µM (inactive) | 19.7 µM (inactive) | 34 µM (inactive) | 17.8 µM (inactive) | 28.8 µM (inactive) | 47.2 µM (inactive) | – | 40.9 µM (inactive) | 7.93 µM (inactive) | 15.7 µM (inactive)
O=C(CNc1nncs1)NO | > 100 µM (inactive) | – | > 100 µM (inactive) | 84.3 µM (inactive) | > 100 µM (inactive) | > 100 µM (inactive) | > 100 µM (inactive) | > 100 µM (inactive) | – | > 100 µM (inactive) | > 100 µM (inactive) | > 100 µM (inactive) | > 100 µM (inactive) | > 10 µM (inactive) | > 100 µM (inactive) | – | > 100 µM (inactive)
O=c1cccccc1NCCCCNc1cccccc1=O | 83.8 µM (inactive) | – | > 100 µM (inactive) | > 100 µM (inactive) | 54.8 µM (inactive) | > 100 µM (inactive) | > 100 µM (inactive) | > 100 µM (inactive) | 30 µM (inactive) | 59.2 µM (inactive) | – | 41.4 µM (inactive) | > 100 µM (inactive) | > 100 µM (inactive) | > 100 µM (inactive) | 83 µM (inactive) | > 100 µM (inactive)
Cc1c(C(=O)Nc2ccc(Cl)cc2)nc(N)nc1-c1cccc(Cl)c1 | – | > 100 µM (inactive) | > 100 µM (inactive) | 36.7 µM (inactive) | > 100 µM (inactive) | 46.6 µM (inactive) | > 100 µM (inactive) | > 100 µM (inactive) | > 100 µM (inactive) | 74.5 µM (inactive) | 39.5 µM (inactive) | > 100 µM (inactive) | > 100 µM (inactive) | > 100 µM (inactive) | – | 68.7 µM (inactive) | –
COC[C@@H](/N=C/N1CCc2cc(OC)c(OC)cc2[C@@H]1C)C(C)(C)C | > 100 µM (inactive) | > 100 µM (inactive) | > 100 µM (inactive) | 79.8 µM (inactive) | > 100 µM (inactive) | > 100 µM (inactive) | > 100 µM (inactive) | > 100 µM (inactive) | > 100 µM (inactive) | > 100 µM (inactive) | > 100 µM (inactive) | > 100 µM (inactive) | – | > 100 µM (inactive) | – | > 100 µM (inactive) | > 100 µM (inactive)
Nc1c(Cl)ncnc1NCCCCCCCCCCCCNc1ncnc(Cl)c1N | – | 0.147 µM (active) | 3.44 µM (inactive) | 7.03 µM (inactive) | – | 3.12 µM (inactive) | 1.01 µM (active) | < 0.01 µM (active) | < 0.01 µM (active) | 2.07 µM (inactive) | 1.54 µM (inactive) | 2.3 µM (inactive) | < 0.01 µM (active) | 0.162 µM (active) | 6.05 µM (inactive) | – | 4.6 µM (inactive)
CN[C@H](C)[C@@H](OC)c1ccccc1 | – | – | > 100 µM (inactive) | > 100 µM (inactive) | > 100 µM (inactive) | > 100 µM (inactive) | > 100 µM (inactive) | > 100 µM (inactive) | > 100 µM (inactive) | > 100 µM (inactive) | > 100 µM (inactive) | – | > 100 µM (inactive) | > 100 µM (inactive) | – | > 100 µM (inactive) | > 100 µM (inactive)
CC(=O)NC(CCCCNCc1ccccc1)C(=O)NCc1ccccc1 (stereo not given) | > 100 µM (inactive) | – | > 100 µM (inactive) | > 100 µM (inactive) | > 100 µM (inactive) | > 100 µM (inactive) | > 100 µM (inactive) | > 100 µM (inactive) | > 100 µM (inactive) | > 100 µM (inactive) | > 100 µM (inactive) | > 100 µM (inactive) | > 100 µM (inactive) | > 100 µM (inactive) | > 100 µM (inactive) | > 100 µM (inactive) | > 100 µM (inactive)
COC1=CC(=O)C2C(C1=O)[C@@H]1c3ccccc3OC[C@H]21 (stereo not given in full) | 49.9 µM (inactive) | – | > 100 µM (inactive) | > 100 µM (inactive) | > 100 µM (inactive) | > 100 µM (inactive) | > 100 µM (inactive) | > 100 µM (inactive) | > 100 µM (inactive) | > 100 µM (inactive) | > 100 µM (inactive) | > 100 µM (inactive) | > 100 µM (inactive) | > 100 µM (inactive) | > 100 µM (inactive) | > 100 µM (inactive) | > 100 µM (inactive)
CC(=O)OC1(C#N)CC2OC1C1NC21 (stereo not given) | > 100 µM (inactive) | – | > 100 µM (inactive) | – | > 100 µM (inactive) | – | – | – | > 100 µM (inactive) | > 100 µM (inactive) | > 100 µM (inactive) | > 100 µM (inactive) | > 100 µM (inactive) | > 100 µM (inactive) | > 100 µM (inactive) | > 100 µM (inactive) | > 100 µM (inactive)
N=C(N)NS(=O)(=O)c1ccc(NCc2c3ccccc3[n+]([O-])c3ccccc23)cc1 | 29.9 µM (inactive) | – | > 100 µM (inactive) | 41.5 µM (inactive) | 17 µM (inactive) | 30.4 µM (inactive) | 18.7 µM (inactive) | 46.1 µM (inactive) | 14 µM (inactive) | 17.6 µM (inactive) | – | 11.8 µM (inactive) | > 100 µM (inactive) | 5.64 µM (inactive) | 13.6 µM (inactive) | 21.3 µM (inactive) | > 100 µM (inactive)
N#CC(C(=N/O)/C(=N/O)C(C#N)c1ccc(Cl)cc1)c1ccc(Cl)cc1 (stereo not given) | – | – | > 100 µM (inactive) | > 100 µM (inactive) | > 100 µM (inactive) | > 100 µM (inactive) | > 100 µM (inactive) | > 100 µM (inactive) | – | > 100 µM (inactive) | 46.7 µM (inactive) | > 100 µM (inactive) | > 100 µM (inactive) | – | > 100 µM (inactive) | 42.9 µM (inactive) | > 100 µM (inactive)
CCc1ccccc1NC(=O)C1=C(C)NC(C)=C(C(=O)Nc2ccccc2CC)C1c1ccc2c(c1)OCO2 | 24.1 µM (inactive) | – | 31.3 µM (inactive) | 31.9 µM (inactive) | 22.8 µM (inactive) | 19.2 µM (inactive) | 33.3 µM (inactive) | 22.5 µM (inactive) | 23.2 µM (inactive) | 29.1 µM (inactive) | 20 µM (inactive) | 25.2 µM (inactive) | 27.1 µM (inactive) | 19.5 µM (inactive) | 25.1 µM (inactive) | 25.2 µM (inactive) | 47.6 µM (inactive)
Cc1ccc(S(=O)(=O)NC2CCCCO2)cc1 (stereo not given) | > 100 µM (inactive) | – | > 100 µM (inactive) | > 100 µM (inactive) | > 100 µM (inactive) | > 100 µM (inactive) | – | > 100 µM (inactive) | > 100 µM (inactive) | > 100 µM (inactive) | > 100 µM (inactive) | > 100 µM (inactive) | > 100 µM (inactive) | > 100 µM (inactive) | > 100 µM (inactive) | > 100 µM (inactive) | –
C=Cc1ccc(C)[n+](C[Si](C)(C)O[Si](C)(C)C[n+]2cc(C=C)ccc2C)c1 | > 100 µM (inactive) | > 100 µM (inactive) | 54.2 µM (inactive) | > 100 µM (inactive) | > 100 µM (inactive) | > 100 µM (inactive) | > 100 µM (inactive) | > 100 µM (inactive) | > 100 µM (inactive) | 71.8 µM (inactive) | > 100 µM (inactive) | > 100 µM (inactive) | > 100 µM (inactive) | > 100 µM (inactive) | – | > 100 µM (inactive) | > 100 µM (inactive)
COc1cc2c(c(OC)c1OC)-c1ccc(SC)c(=O)cc1[C@@H](NC(=O)c1ccc([N+](=O)[O-])cc1)CC2 | – | 0.00522 µM (active) | < 0.0025 µM (active) | 0.1 µM (active) | 0.00555 µM (active) | < 0.0025 µM (active) | < 0.0025 µM (active) | < 0.0025 µM (active) | < 0.0025 µM (active) | 0.025 µM (active) | < 0.0025 µM (active) | 0.0154 µM (active) | 0.00485 µM (active) | < 0.0025 µM (active) | 0.00632 µM (active) | – | 3.13 µM (inactive)
Nc1ccccc1S(=O)(=O)N(CC(=O)O)c1ccccc1 | > 100 µM (inactive) | – | > 100 µM (inactive) | > 100 µM (inactive) | > 100 µM (inactive) | – | – | – | > 100 µM (inactive) | > 100 µM (inactive) | > 100 µM (inactive) | > 100 µM (inactive) | > 100 µM (inactive) | > 100 µM (inactive) | > 100 µM (inactive) | > 100 µM (inactive) | > 100 µM (inactive)
Cc1ccc(C)c(NC(=O)c2cccc([N+](=O)[O-])c2O)c1 | 23.3 µM (inactive) | – | 29.5 µM (inactive) | 26.1 µM (inactive) | 15.1 µM (inactive) | 23.7 µM (inactive) | 18.4 µM (inactive) | 27.1 µM (inactive) | 5.9 µM (inactive) | 25.5 µM (inactive) | 0.871 µM (active) | 22 µM (inactive) | 87.7 µM (inactive) | > 100 µM (inactive) | 24 µM (inactive) | 30.8 µM (inactive) | –
